ChEMBL document CHEMBL3991601, “The target landscape of clinical kinase drugs” (Science, 2017)
Structures can show the parent of a compound that is named as a salt. Active and inactive are the calls of the source.

What was measured:
[1] = target: Serine/threonine-protein kinase/endoribonuclease IRE2 (Homo sapiens, UniProt Q76MJ5)
[2] = target: Interleukin-1 receptor-associated kinase 1 (Homo sapiens, UniProt P51617)
[3] = target: T1, Mitogen-activated protein kinase kinase kinase 2 (Homo sapiens, UniProt Q9Y2U5)
T1 sequence (Q9Y2U5 whole entry): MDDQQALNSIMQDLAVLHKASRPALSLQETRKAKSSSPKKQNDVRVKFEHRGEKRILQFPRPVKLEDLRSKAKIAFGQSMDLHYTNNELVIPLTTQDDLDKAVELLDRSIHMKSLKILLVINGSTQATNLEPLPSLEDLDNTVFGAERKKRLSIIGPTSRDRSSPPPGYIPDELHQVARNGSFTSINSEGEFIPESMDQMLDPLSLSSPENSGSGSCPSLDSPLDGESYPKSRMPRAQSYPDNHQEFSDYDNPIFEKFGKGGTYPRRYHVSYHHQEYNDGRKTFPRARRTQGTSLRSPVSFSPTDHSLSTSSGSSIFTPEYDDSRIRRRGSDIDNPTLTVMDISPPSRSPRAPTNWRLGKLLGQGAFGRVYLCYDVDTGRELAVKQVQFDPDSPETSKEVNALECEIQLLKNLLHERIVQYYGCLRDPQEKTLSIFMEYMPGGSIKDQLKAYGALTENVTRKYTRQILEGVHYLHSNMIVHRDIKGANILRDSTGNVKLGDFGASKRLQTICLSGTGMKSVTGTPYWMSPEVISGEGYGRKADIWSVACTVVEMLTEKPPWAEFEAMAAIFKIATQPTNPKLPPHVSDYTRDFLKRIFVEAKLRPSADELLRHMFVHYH

[4] = target: Mitogen-activated protein kinase 3 (Homo sapiens, UniProt P27361)
[5] = target: T2, Thyroid hormone receptor-associated protein 3 (Homo sapiens, UniProt Q9Y2W1)
T2 sequence (Q9Y2W1 whole entry): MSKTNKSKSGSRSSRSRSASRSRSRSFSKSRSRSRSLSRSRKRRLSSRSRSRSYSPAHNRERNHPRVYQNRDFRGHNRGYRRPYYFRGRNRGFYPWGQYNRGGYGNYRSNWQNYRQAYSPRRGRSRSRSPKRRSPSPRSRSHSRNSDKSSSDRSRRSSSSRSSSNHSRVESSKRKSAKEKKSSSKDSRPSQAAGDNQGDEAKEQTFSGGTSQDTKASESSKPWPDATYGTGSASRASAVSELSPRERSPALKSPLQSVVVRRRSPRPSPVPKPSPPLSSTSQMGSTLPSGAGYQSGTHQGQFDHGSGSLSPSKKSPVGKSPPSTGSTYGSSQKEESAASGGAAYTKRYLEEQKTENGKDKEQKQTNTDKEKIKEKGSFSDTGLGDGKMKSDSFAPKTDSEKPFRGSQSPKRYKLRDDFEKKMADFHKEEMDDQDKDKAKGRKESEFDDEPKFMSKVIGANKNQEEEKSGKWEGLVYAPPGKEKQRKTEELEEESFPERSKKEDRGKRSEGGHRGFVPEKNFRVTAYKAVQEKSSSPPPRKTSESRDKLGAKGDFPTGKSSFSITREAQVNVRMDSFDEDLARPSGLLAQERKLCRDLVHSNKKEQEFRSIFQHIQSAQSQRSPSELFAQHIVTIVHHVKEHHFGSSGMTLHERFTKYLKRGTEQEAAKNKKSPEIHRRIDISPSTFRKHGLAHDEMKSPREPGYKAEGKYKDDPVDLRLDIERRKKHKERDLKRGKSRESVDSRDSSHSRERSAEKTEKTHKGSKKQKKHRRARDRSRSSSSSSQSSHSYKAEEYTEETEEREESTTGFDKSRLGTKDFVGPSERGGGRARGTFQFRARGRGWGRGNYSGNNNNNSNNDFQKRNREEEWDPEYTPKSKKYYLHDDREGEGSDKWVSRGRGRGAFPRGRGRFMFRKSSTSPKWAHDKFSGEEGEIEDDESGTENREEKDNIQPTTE

Activin receptor type-1 = target: T3, Activin receptor type-1 (Homo sapiens, UniProt Q04771)
T3 sequence (Q04771 whole entry): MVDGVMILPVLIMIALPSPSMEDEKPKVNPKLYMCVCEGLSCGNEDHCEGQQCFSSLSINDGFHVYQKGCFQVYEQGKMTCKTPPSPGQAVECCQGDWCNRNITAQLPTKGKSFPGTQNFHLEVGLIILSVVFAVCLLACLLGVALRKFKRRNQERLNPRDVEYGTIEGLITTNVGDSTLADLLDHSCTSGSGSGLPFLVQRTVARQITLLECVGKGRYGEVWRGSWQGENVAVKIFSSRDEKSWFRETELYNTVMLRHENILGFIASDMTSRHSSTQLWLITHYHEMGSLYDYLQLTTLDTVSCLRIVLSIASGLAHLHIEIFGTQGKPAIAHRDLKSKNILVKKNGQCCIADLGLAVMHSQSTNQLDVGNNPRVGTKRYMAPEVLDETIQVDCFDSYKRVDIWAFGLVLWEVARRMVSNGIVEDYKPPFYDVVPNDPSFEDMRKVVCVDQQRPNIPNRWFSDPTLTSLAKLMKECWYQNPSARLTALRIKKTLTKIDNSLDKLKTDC

[6] = target: T4, Serine/threonine-protein kinase STK11 (Homo sapiens, UniProt Q15831)
T4 sequence (Q15831 whole entry): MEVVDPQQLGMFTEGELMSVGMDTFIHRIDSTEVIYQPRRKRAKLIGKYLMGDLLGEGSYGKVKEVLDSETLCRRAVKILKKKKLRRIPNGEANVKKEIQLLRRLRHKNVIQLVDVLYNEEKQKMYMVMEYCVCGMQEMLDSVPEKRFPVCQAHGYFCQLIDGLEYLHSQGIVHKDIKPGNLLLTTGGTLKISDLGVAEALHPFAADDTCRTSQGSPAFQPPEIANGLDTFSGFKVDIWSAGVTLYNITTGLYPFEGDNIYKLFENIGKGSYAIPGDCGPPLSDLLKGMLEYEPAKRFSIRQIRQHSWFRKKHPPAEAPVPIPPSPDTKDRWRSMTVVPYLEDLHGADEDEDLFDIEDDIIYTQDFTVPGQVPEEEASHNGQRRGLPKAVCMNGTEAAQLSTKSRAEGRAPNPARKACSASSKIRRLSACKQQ

[7] = target: Protein-tyrosine kinase 2-beta (Homo sapiens, UniProt Q14289)
[8] = target: cAMP-dependent protein kinase type II-alpha regulatory subunit (Homo sapiens, UniProt P13861)
Further: in the data inactive means no Kd found up to 30 µM.

Sequence of Mitogen-activated protein kinase 3 (P27361 whole entry): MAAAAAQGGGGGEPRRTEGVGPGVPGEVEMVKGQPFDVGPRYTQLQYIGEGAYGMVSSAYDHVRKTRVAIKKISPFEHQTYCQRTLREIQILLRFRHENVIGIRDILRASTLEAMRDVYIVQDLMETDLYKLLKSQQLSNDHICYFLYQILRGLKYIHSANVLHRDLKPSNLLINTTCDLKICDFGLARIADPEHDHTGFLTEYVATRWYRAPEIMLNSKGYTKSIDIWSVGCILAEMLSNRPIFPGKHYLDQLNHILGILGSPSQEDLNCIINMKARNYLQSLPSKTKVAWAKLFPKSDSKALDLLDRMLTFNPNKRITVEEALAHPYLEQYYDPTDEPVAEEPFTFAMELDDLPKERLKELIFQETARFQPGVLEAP
Sequence of Serine/threonine-protein kinase/endoribonuclease IRE2 (Q76MJ5 whole entry): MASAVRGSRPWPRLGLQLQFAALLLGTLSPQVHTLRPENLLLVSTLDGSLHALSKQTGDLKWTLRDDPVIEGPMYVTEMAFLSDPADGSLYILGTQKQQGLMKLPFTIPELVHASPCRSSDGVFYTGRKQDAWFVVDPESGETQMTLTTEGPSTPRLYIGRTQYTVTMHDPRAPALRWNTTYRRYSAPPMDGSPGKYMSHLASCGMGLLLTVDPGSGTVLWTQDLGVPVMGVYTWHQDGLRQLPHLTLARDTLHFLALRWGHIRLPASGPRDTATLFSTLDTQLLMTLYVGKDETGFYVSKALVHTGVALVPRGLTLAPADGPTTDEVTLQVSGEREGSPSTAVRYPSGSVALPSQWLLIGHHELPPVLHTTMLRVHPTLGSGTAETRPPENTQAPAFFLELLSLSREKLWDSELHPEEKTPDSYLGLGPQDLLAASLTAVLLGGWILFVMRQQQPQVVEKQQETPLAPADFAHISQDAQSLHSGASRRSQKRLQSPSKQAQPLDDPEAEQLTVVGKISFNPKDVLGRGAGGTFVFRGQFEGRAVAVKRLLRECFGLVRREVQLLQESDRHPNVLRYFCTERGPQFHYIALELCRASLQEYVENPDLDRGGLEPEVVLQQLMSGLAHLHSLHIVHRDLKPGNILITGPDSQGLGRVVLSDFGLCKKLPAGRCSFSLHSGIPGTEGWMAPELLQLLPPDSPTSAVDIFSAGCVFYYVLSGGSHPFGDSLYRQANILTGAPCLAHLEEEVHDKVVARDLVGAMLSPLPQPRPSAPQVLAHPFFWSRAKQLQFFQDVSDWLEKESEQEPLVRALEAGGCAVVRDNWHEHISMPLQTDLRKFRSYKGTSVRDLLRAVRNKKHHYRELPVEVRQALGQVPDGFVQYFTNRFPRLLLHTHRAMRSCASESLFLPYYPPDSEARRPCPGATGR
Sequence of cAMP-dependent protein kinase type II-alpha regulatory subunit (P13861 whole entry): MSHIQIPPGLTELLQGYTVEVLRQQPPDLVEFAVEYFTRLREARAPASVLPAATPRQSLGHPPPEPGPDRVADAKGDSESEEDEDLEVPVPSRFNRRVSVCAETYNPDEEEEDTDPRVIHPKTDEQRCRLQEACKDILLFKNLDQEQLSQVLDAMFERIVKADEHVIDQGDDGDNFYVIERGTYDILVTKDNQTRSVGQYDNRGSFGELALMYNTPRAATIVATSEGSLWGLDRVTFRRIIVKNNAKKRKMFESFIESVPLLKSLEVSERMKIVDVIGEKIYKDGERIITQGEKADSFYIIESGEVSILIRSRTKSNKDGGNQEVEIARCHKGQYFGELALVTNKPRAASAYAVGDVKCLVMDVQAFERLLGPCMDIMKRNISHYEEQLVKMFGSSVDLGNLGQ
Sequence of Interleukin-1 receptor-associated kinase 1 (P51617 whole entry): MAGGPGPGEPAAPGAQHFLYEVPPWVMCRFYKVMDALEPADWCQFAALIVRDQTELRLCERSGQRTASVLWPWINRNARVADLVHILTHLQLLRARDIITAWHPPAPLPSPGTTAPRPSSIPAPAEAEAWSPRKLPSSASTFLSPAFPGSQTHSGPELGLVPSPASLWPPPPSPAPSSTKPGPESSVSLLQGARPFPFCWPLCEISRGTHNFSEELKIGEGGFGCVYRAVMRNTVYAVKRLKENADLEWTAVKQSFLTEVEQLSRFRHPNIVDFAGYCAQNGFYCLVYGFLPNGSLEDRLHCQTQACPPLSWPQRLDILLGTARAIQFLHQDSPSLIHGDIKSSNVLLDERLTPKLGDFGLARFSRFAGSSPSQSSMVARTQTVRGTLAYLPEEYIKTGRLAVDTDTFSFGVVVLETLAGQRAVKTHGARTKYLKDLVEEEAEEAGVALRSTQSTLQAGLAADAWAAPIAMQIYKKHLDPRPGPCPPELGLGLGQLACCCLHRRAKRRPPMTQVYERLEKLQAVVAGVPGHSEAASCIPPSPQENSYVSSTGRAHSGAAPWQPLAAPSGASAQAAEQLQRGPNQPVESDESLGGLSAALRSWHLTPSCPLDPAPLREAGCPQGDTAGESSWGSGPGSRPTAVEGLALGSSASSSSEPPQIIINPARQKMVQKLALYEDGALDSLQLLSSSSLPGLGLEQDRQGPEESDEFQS
Sequence of Protein-tyrosine kinase 2-beta (Q14289 whole entry): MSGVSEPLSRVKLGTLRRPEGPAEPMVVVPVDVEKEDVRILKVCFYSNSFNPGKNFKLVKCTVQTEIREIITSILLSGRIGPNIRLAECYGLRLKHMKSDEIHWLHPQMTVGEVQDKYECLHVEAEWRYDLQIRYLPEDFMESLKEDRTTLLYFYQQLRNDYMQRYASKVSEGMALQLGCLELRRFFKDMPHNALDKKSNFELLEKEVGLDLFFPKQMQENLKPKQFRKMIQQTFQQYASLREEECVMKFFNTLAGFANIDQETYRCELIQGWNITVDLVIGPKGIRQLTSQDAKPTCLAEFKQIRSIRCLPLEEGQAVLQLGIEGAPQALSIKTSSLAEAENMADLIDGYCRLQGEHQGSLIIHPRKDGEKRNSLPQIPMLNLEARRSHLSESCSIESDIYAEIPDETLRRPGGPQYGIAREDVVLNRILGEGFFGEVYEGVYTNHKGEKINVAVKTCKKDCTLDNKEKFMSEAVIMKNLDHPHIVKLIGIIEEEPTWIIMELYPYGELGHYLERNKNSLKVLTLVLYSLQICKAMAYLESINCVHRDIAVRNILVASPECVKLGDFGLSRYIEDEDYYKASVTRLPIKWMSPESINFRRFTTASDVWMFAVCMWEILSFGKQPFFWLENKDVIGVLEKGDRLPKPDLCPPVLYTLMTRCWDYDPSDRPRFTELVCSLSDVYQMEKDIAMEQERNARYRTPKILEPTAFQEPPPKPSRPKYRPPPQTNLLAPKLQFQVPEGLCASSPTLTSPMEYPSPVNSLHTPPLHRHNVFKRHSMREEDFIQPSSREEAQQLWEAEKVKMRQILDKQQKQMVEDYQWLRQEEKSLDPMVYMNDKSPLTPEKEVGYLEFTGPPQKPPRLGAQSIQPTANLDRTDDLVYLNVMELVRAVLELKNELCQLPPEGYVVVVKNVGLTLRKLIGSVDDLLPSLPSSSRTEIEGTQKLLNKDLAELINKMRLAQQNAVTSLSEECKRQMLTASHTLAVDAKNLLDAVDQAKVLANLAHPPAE

Row | Kd [1] | Kd [2] | Kd [3] | Kd [4] | Kd [5] | Kd (Activin receptor type-1) | Kd [6] | Kd [7] | Kd [8] | SMILES
1 | > 30 µM (inactive) | > 30 µM (inactive) | > 30 µM (inactive) | > 30 µM (inactive) | > 30 µM (inactive) | > 30 µM (inactive) | > 30 µM (inactive) | > 30 µM (inactive) | > 30 µM (inactive) | C[C@H]1CNCCCN1S(=O)(=O)c1cccc2cncc(F)c12
2 | > 30 µM (inactive) | > 30 µM (inactive) | > 30 µM (inactive) | > 30 µM (inactive) | > 30 µM (inactive) | > 30 µM (inactive) | > 30 µM (inactive) | > 30 µM (inactive) | > 30 µM (inactive) | CCNC(=O)C#Cc1ccc2c(c1)NC(=O)/C2=C(\Nc1ccc(CN(C)C)cc1)c1ccccc1
3 | > 30 µM (inactive) | > 30 µM (inactive) | > 30 µM (inactive) | > 30 µM (inactive) | > 30 µM (inactive) | > 30 µM (inactive) | > 30 µM (inactive) | > 30 µM (inactive) | > 30 µM (inactive) | C=CC(=O)N1CCC[C@H](n2c(=O)n(-c3ccc(Oc4ccccc4)cc3)c3c(N)ncnc32)C1
4 | > 30 µM (inactive) | > 30 µM (inactive) | > 30 µM (inactive) | > 30 µM (inactive) | > 30 µM (inactive) | 0.04 µM (active) | > 30 µM (inactive) | > 30 µM (inactive) | > 30 µM (inactive) | Cc1nc2cc(-c3nn(C(C)C)c4ncnc(N)c34)ccc2o1
5 | > 30 µM (inactive) | > 30 µM (inactive) | > 30 µM (inactive) | > 30 µM (inactive) | > 30 µM (inactive) | > 30 µM (inactive) | > 30 µM (inactive) | > 30 µM (inactive) | > 30 µM (inactive) | Cc1nc(NC(=O)N2CCC[C@H]2C(N)=O)sc1-c1ccnc(C(C)(C)C(F)(F)F)c1 [ALPELISIB]
6 | > 30 µM (inactive) | > 30 µM (inactive) | 0.277 µM (active) | > 30 µM (inactive) | > 30 µM (inactive) | 0.078 µM (active) | > 30 µM (inactive) | > 30 µM (inactive) | > 30 µM (inactive) | O=C(Nc1c[nH]nc1-c1nc2cc(CN3CCOCC3)ccc2[nH]1)NC1CC1 [AT-9283]
7 | > 30 µM (inactive) | > 30 µM (inactive) | > 30 µM (inactive) | > 30 µM (inactive) | > 30 µM (inactive) | > 30 µM (inactive) | > 30 µM (inactive) | > 30 µM (inactive) | > 30 µM (inactive) | Cc1cc(C(=O)NOCCO)c(Nc2ccc(I)cc2F)n(C)c1=O [AZD-8330]
8 | > 30 µM (inactive) | > 30 µM (inactive) | > 30 µM (inactive) | > 30 µM (inactive) | > 30 µM (inactive) | > 30 µM (inactive) | > 30 µM (inactive) | > 30 µM (inactive) | > 30 µM (inactive) | Cn1cnc2c(F)c(Nc3ccc(Br)cc3F)c(C(=O)NOCCO)cc21 [BINIMETINIB]
9 | > 30 µM (inactive) | > 30 µM (inactive) | > 30 µM (inactive) | > 30 µM (inactive) | > 30 µM (inactive) | > 30 µM (inactive) | > 30 µM (inactive) | > 30 µM (inactive) | > 30 µM (inactive) | CCn1c(C(=O)N(C2CC2)C2CC2)cc2c3c(ncn3C)c(Nc3cc(C)n(C)n3)nc21 [BMS-911543]
10 | > 30 µM (inactive) | > 30 µM (inactive) | > 30 µM (inactive) | > 30 µM (inactive) | > 30 µM (inactive) | > 30 µM (inactive) | > 30 µM (inactive) | > 30 µM (inactive) | > 30 µM (inactive) | COc1cc2ncnc(Oc3cccc(NC(=O)Nc4cc(C(C)(C)C(F)(F)F)on4)c3)c2cc1OC [CEP-32496]
11 | > 30 µM (inactive) | > 30 µM (inactive) | > 30 µM (inactive) | > 30 µM (inactive) | > 30 µM (inactive) | > 30 µM (inactive) | > 30 µM (inactive) | 18.4 µM (active) | > 30 µM (inactive) | Cc1cc(Nc2ncc(Cl)c(Nc3ccccc3S(=O)(=O)C(C)C)n2)c(OC(C)C)cc1C1CCNCC1 [CERITINIB]
12 | > 30 µM (inactive) | > 30 µM (inactive) | > 30 µM (inactive) | > 30 µM (inactive) | > 30 µM (inactive) | > 30 µM (inactive) | > 30 µM (inactive) | > 30 µM (inactive) | > 30 µM (inactive) | COCC(=O)NC/C=C/c1ccc2ncnc(Nc3ccc(Oc4ccc(C)nc4)c(C)c3)c2c1 [CP-724714]
13 | > 30 µM (inactive) | > 30 µM (inactive) | > 30 µM (inactive) | > 30 µM (inactive) | > 30 µM (inactive) | > 30 µM (inactive) | > 30 µM (inactive) | > 30 µM (inactive) | > 30 µM (inactive) | C#Cc1cccc(Nc2ncnc3cc(OC)c(OCCCCCCC(=O)NO)cc23)c1 [CUDC-101]
14 | > 30 µM (inactive) | > 30 µM (inactive) | 0.747 µM (active) | > 30 µM (inactive) | > 30 µM (inactive) | > 30 µM (inactive) | > 30 µM (inactive) | > 30 µM (inactive) | > 30 µM (inactive) | CCS(=O)(=O)N1CCN(c2ccc(Nc3ncc(C(N)=O)c(NC4CC4)n3)cc2)CC1 [Cerdulatinib Hydrochloride]

Row | SMILES | Kd [1] | Kd [2] | Kd [3] | Kd [4] | Kd [5] | Kd (Activin receptor type-1) | Kd [6] | Kd [7] | Kd [8]
15 | NC(=O)Nc1cc(-c2cccc(F)c2)sc1C(=O)N[C@H]1CCCNC1 [AZD-7762] | > 30 µM (inactive) | > 30 µM (inactive) | > 30 µM (inactive) | > 30 µM (inactive) | > 30 µM (inactive) | > 30 µM (inactive) | > 30 µM (inactive) | 0.608 µM (active) | > 30 µM (inactive)
